These compounds were tested against SARS-CoV-2 3CL-protease (Severe acute respiratory syndrome coronavirus 2, UniProt P0DTD1) (assay: SARS-CoV-2 3C-like (3CL) protease fluorescence assay (FRET)). Conditions: not given.
Format: biochemical

N#C[C@@H]1C[C@@]2(CN1C(=O)Oc1ccccc1)C(=O)Nc1ccccc12 [Example 71] and CCOC(=O)N1C[C@]2(C[C@H]1C#N)C(=O)Nc1ccccc12 [Example 67] cannot be ordered by IC50: greater than 1000 nM for the first, greater than 1000 nM for the second.

Same assay, conditions: recombinant SARS-CoV-2 3CL-protease 10 nM, 30 min preincubation at RT, duplicate; read-out: FRET IC50

First: N#C[C@@H]1C[C@@]2(CN1C(=O)C(=O)NC1(c3ccccc3)CCCC1)C(=O)Nc1ccccc12 [Example 175]
Second: N#C[C@@H]1C[C@@]2(CN1C(=O)C(=O)Nc1ccccc1)C(=O)Nc1ccccc12 [Example 73]
The IC50 of the first is lower: less than 100 nM for the first, greater than 1000 nM for the second. The first is the more potent here.

CC(C)OC(=O)C(=O)N1C[C@]2(C[C@H]1C#N)C(=O)Nc1ccccc12 [Example 124] and CC(C)NC(=O)C(=O)N1C[C@]2(C[C@H]1C#N)C(=O)Nc1ccccc12 [Example 89] cannot be ordered by IC50: greater than 1000 nM for the first, greater than 1000 nM for the second.

CC(C)CN1C[C@]2(C[C@@H]1C#N)C(=O)Nc1ccccc12 [Example 65] and CC(C)CN1C[C@]2(C[C@H]1C#N)C(=O)Nc1ccccc12 [Example 64] cannot be ordered by IC50: greater than 1000 nM for the first, greater than 1000 nM for the second.

N#C[C@@H]1C[C@@]2(CN1S(=O)(=O)NCc1nccs1)C(=O)Nc1ccccc12 [Example 63] and N#C[C@@H]1C[C@@]2(CN1C(=O)C(=O)OCc1nccs1)C(=O)Nc1ccccc12 [Example 127] cannot be ordered by IC50: greater than 1000 nM for the first, greater than 1000 nM for the second.

N#C[C@@H]1C[C@@]2(CN1C(=O)CC(=O)N[C@H]1CCC[C@@H]1O)C(=O)Nc1ccccc12 [Example 171] and N#C[C@@H]1C[C@@]2(CN1C(=O)CC(=O)N[C@@H]1CCC[C@H]1O)C(=O)Nc1ccccc12 [Example 172] cannot be ordered by IC50: greater than 1000 nM for the first, greater than 1000 nM for the second.

CC(C)(C)OC(=O)N[C@@H]1CC[C@H](NC(=O)C(=O)N2C[C@]3(C[C@H]2C#N)C(=O)Nc2ccccc23)C1 [Example 174] and CC(C)(C)OC(=O)N[C@H]1CC[C@@H](NC(=O)C(=O)N2C[C@]3(C[C@H]2C#N)C(=O)Nc2ccccc23)CC1 [Example 150] cannot be ordered by IC50: greater than 1000 nM for the first, greater than 1000 nM for the second.

N#C[C@@H]1C[C@@]2(CN1S(=O)(=O)c1ccc(F)cc1)C(=O)Nc1ccccc12 [Example 56] and N#C[C@@H]1C[C@@]2(CN1S(=O)(=O)c1ccccc1)C(=O)Nc1ccccc12 [Example 55] cannot be ordered by IC50: greater than 1000 nM for the first, greater than 1000 nM for the second.

First: N#C[C@@H]1C[C@@]2(CN1C(=O)C(=O)N[C@H]1CC[C@H](C(F)(F)F)CC1)C(=O)Nc1ccccc12 [Example 149]
Second: N#C[C@@H]1C[C@@]2(CN1C(=O)C(=O)NC1CCCC1)C(=O)Nc1ccccc12 [Example 90]
The IC50 of the first is higher: greater than 1000 nM for the first, 100 to 1000 nM for the second.

Compared with CCCCCCNC(=O)C(=O)N1C[C@]2(C[C@H]1C#N)C(=O)Nc1ccccc12 [Example 156], CCNC(=O)C(=O)N1C[C@]2(C[C@H]1C#N)C(=O)Nc1ccccc12 [Example 88] is higher in IC50: 100 to 1000 nM for the first, greater than 1000 nM for the second. The first is the more potent here.

N#C[C@@H]1C[C@@]2(CN1C(=O)C(=O)Nc1ccc3cccnc3c1)C(=O)Nc1ccccc12 [Example 91] and N#C[C@@H]1C[C@@]2(CN1S(=O)(=O)Nc1ccc3cccnc3c1)C(=O)Nc1ccccc12 [Example 76] cannot be ordered by IC50: greater than 1000 nM for the first, greater than 1000 nM for the second.

N#C[C@@H]1C[C@@]2(CN1C(=O)c1cc3ccccc3[nH]1)C(=O)Nc1ccccc12 [Example 54] and N#C[C@@H]1C[C@@]2(CN1C(=O)C(=O)OCc1ccccc1)C(=O)Nc1ccccc12 [Example 126] cannot be ordered by IC50: greater than 1000 nM for the first, greater than 1000 nM for the second.

First: N#C[C@@H]1C[C@@]2(CN1C(=O)C(=O)NCCCc1ccccc1)C(=O)Nc1ccccc12 [Example 160]
Second: N#C[C@@H]1C[C@@]2(CN1C(=O)C(=O)NCCc1ccccc1)C(=O)Nc1ccccc12 [Example 159]
The IC50 of the first is lower: 100 to 1000 nM for the first, greater than 1000 nM for the second.

CC(C)(C(=O)C1CCCCC1)C(=O)N1C[C@]2(C[C@H]1C#N)C(=O)Nc1ccccc12 [Example 101] and CC(C)(C(=O)C1CC1)C(=O)N1C[C@]2(C[C@H]1C#N)C(=O)Nc1ccccc12 [Example 100] cannot be ordered by IC50: greater than 1000 nM for the first, greater than 1000 nM for the second.

CC(C)NS(=O)(=O)N1C[C@]2(C[C@H]1C#N)C(=O)Nc1ccccc12 [Example 57] and CC(C)S(=O)(=O)N1C[C@]2(C[C@H]1C#N)C(=O)Nc1ccccc12 [Example 122] cannot be ordered by IC50: greater than 1000 nM for the first, greater than 1000 nM for the second.

N#C[C@@H]1C[C@@]2(CN1C(=O)C(=O)Nc1ccc(C(F)(F)F)nc1)C(=O)Nc1ccccc12 [Example 164] and N#C[C@@H]1C[C@@]2(CN1C(=O)C(=O)Nc1ccnc(C(F)(F)F)c1)C(=O)Nc1ccccc12 [Example 167] cannot be ordered by IC50: greater than 1000 nM for the first, greater than 1000 nM for the second.

N#C[C@@H]1C[C@@]2(CN1C(=O)C(=O)N[C@H]1CC[C@@H](NC(=O)OCc3ccccc3)CC1)C(=O)Nc1ccccc12 [Example 145] and CC(=O)N[C@H]1CC[C@@H](NC(=O)C(=O)N2C[C@]3(C[C@H]2C#N)C(=O)Nc2ccccc23)CC1 [Example 169] cannot be ordered by IC50: greater than 1000 nM for the first, greater than 1000 nM for the second.

First: N#C[C@@H]1C[C@@]2(CN1C(=O)[C@@H](Cc1ccccc1)C(=O)c1ccccc1)C(=O)Nc1ccccc12 [Example 95]
Second: N#C[C@@H]1C[C@@]2(CN1C(=O)[C@H](Cc1ccccc1)C(=O)Nc1ccccc1)C(=O)Nc1ccccc12 [Example 120]
The IC50 of the first is higher: greater than 1000 nM for the first, 100 to 1000 nM for the second.

N#C[C@@H]1C[C@@]2(CN1C(=O)C(=O)Nc1cc(C(F)(F)F)ccn1)C(=O)Nc1ccccc12 [Example 161] and N#C[C@@H]1C[C@@]2(CN1C(=O)C(=O)Nc1cccnc1C(F)(F)F)C(=O)Nc1ccccc12 [Example 165] cannot be ordered by IC50: greater than 1000 nM for the first, greater than 1000 nM for the second.

CC1(C)CCC(NC(=O)C(=O)N2C[C@]3(C[C@H]2C#N)C(=O)Nc2ccccc23)CC1 [Example 143] and C[C@]1(O)CC[C@H](NC(=O)C(=O)N2C[C@]3(C[C@H]2C#N)C(=O)Nc2ccccc23)CC1 [Example 177] cannot be ordered by IC50: greater than 1000 nM for the first, greater than 1000 nM for the second.

N#C[C@@H]1C[C@@]2(CN1C(=O)CC(=O)N[C@@H]1CC[C@H](O)C1)C(=O)Nc1ccccc12 [Example 183] and N#C[C@@H]1C[C@@]2(CN1C(=O)CC(=O)N[C@@H]1CC[C@@H](O)C1)C(=O)Nc1ccccc12 [Example 181] cannot be ordered by IC50: greater than 1000 nM for the first, greater than 1000 nM for the second.

N#C[C@@H]1C[C@@]2(CN1S(=O)(=O)NC1CCCCC1)C(=O)Nc1ccccc12 [Example 61] and N#C[C@@H]1C[C@@]2(CN1S(=O)(=O)NC1CCCC1)C(=O)Nc1ccccc12 [Example 60] cannot be ordered by IC50: greater than 1000 nM for the first, greater than 1000 nM for the second.

N#C[C@@H]1C[C@@]2(CN1NC(=O)C1CCCCC1)C(=O)Nc1ccccc12 [Example 141] and N#C[C@@H]1C[C@@]2(CN1C(=O)OC1CCCCC1)C(=O)Nc1ccccc12 [Example 77] cannot be ordered by IC50: greater than 1000 nM for the first, greater than 1000 nM for the second.

CCOC(=O)C(=O)N1C[C@]2(C[C@H]1C#N)C(=O)Nc1ccccc12 [Example 123] and N#C[C@@H]1C[C@@]2(CN1C(=O)C(=O)OC1CC1)C(=O)Nc1ccccc12 [Example 125] cannot be ordered by IC50: greater than 1000 nM for the first, greater than 1000 nM for the second.

CC(C)NC(=O)C(C)(C)C(=O)N1C[C@]2(C[C@H]1C#N)C(=O)Nc1ccccc12 [Example 82] and CC(C)(C(=O)NC1CC1)C(=O)N1C[C@]2(C[C@H]1C#N)C(=O)Nc1ccccc12 [Example 83] cannot be ordered by IC50: greater than 1000 nM for the first, greater than 1000 nM for the second.

First: N#C[C@@H]1C[C@@]2(CN1C(=O)C(=O)NCc1ccccc1)C(=O)Nc1ccccc12 [Example 80]
Second: N#C[C@@H]1C[C@@]2(CN1C(=O)[C@@H](Cc1ccccc1)C(=O)NC1CC1)C(=O)Nc1ccccc12 [Example 117]
The IC50 of the first is lower: 100 to 1000 nM for the first, greater than 1000 nM for the second.

N#C[C@@H]1C[C@@]2(CN1C(=N)C1CC1)C(=O)Nc1ccccc12 [Example 148] and N#C[C@@H]1C[C@@]2(CN1CC1CC1)C(=O)Nc1ccccc12 [Example 66] cannot be ordered by IC50: greater than 1000 nM for the first, greater than 1000 nM for the second.

N#C[C@@H]1C[C@@]2(CN1C(=O)C(Cc1ccccc1)C(=O)C1CCCCC1)C(=O)Nc1ccccc12 (stereo partly drawn) [Example 93] and N#C[C@@H]1C[C@@]2(CN1C(=O)[C@@H](Cc1ccccc1)C(=O)NC1CCCCC1)C(=O)Nc1ccccc12 [Example 119] cannot be ordered by IC50: greater than 1000 nM for the first, greater than 1000 nM for the second.

Compared with CC(C)C(=O)NN1C[C@]2(C[C@H]1C#N)C(=O)Nc1ccccc12 [Example 139], CC(C)NC(=O)[C@@H](Cc1ccccc1)C(=O)N1C[C@]2(C[C@H]1C#N)C(=O)Nc1ccccc12 [Example 114] is lower in IC50: greater than 1000 nM for the first, 100 to 1000 nM for the second. The second is the more potent here.

N#C[C@@H]1C[C@@]2(CN1S(=O)(=O)NC1CCC1)C(=O)Nc1ccccc12 [Example 59] and N#C[C@@H]1C[C@@]2(CN1S(=O)(=O)C1CCCCC1)C(=O)Nc1ccccc12 [Example 129] cannot be ordered by IC50: greater than 1000 nM for the first, greater than 1000 nM for the second.

N#C[C@@H]1C[C@@]2(CN1C(=O)C(=O)NCCC1CCCCC1)C(=O)Nc1ccccc12 [Example 155] and N#C[C@@H]1C[C@@]2(CN1C(=O)C(=O)NC1CCCCC1)C(=O)Nc1ccccc12 [Example 79] fall in the same range of IC50: 100 to 1000 nM for the first, 100 to 1000 nM for the second.

CC(C)(C(=O)c1ccccc1)C(=O)N1C[C@]2(C[C@H]1C#N)C(=O)Nc1ccccc12 [Example 111] and CC(C)(C(=O)Nc1ccccc1)C(=O)N1C[C@]2(C[C@H]1C#N)C(=O)Nc1ccccc12 [Example 84] cannot be ordered by IC50: greater than 1000 nM for the first, greater than 1000 nM for the second.

First: CC(C)(C)OC(=O)N[C@@H]1CCC[C@@H]1NC(=O)C(=O)N1C[C@]2(C[C@H]1C#N)C(=O)Nc1ccccc12 [Example 147]
Second: N#C[C@@H]1C[C@@]2(CN1C(=O)CC(=O)N[C@H]1CC[C@H](O)C1)C(=O)Nc1ccccc12 [Example 180]
The IC50 of the first is lower: 100 to 1000 nM for the first, greater than 1000 nM for the second.

N#C[C@@H]1C[C@@]2(CN1C(=O)C(=O)NCc1cc(F)c(F)cc1F)C(=O)Nc1ccccc12 [Example 186] and N#C[C@@H]1C[C@@]2(CN1C(=O)C(=O)Nc1cncc(C(F)(F)F)c1)C(=O)Nc1ccccc12 [Example 199] cannot be ordered by IC50: greater than 1000 nM for the first, greater than 1000 nM for the second.

First: CCCC(CCC)(CCC)NC(=O)C(=O)N1C[C@]2(C[C@H]1C#N)C(=O)Nc1ccccc12 [Example 185]
Second: Cc1cccc(NC(=O)C(=O)N2C[C@]3(C[C@H]2C#N)C(=O)Nc2ccccc23)n1 [Example 168]
The IC50 of the first is lower: 100 to 1000 nM for the first, greater than 1000 nM for the second.

N#C[C@@H]1C[C@@]2(CN1C(=O)C1(C(=O)Nc3ccccc3)CC1)C(=O)Nc1ccccc12 [Example 75] and Cc1ccc(NC(=O)C(=O)N2C[C@]3(C[C@H]2C#N)C(=O)Nc2ccccc23)nc1 [Example 163] cannot be ordered by IC50: greater than 1000 nM for the first, greater than 1000 nM for the second.

Compared with N#C[C@@H]1C[C@@]2(CN1C(=O)C(=O)N[C@H]1CCC(F)(F)C1)C(=O)Nc1ccccc12 [Example 146], CC(C)(C(=O)NC1CCCCC1)C(=O)N1C[C@]2(C[C@H]1C#N)C(=O)Nc1ccccc12 [Example 74] is higher in IC50: 100 to 1000 nM for the first, greater than 1000 nM for the second.

N#C[C@@H]1C[C@@]2(CN1C(=O)C(=O)Nc1cnccc1C(F)(F)F)C(=O)Nc1ccccc12 [Example 176] showed an IC50 greater than 1000 nM.

— patent publication US20230159546A1, “NOVEL SPIROPYRROLIDINE DERIVED ANTIVIRAL AGENTS” (Enanta Pharmaceuticals, Inc., priority 2021, published 2023)
